According to US10710992B2, “Substituted pyridinones as bromodomain inhibitors” (Zenith Epigenetics Ltd., priority 2014, dated 2020):

Key:
[1] = test system: hIL-6 mRNA; experiment: Inhibition of hIL-6 mRNA transcription in LPS-stimulated U937 cells; assay type: cell-based; details: Homo sapiens, U-937; PMA-differentiated U937 cells, 1 h pretreatment, LPS 1 ug/mL, 3 h; read-out: IL-6 activity
Description: Human leukemic monocyte lymphoma U937 cells (CRL-1593.2) were plated at a density of 3.2×10^4 cells per well in a 96-well plate in 100 μL RPMI-1640 containing 10% FBS and penicillin/streptomycin, and differentiated into macrophages for 3 days in 60 ng/mL PMA ([…]) at 37° C. in 5% CO2 prior to the addition of compound. The cells were pretreated for 1 h with increasing concentrations of test compound in 0.1% DMSO prior to stimulation with 1 ug/mL lipopolysaccharide from Escherichia coli. Triplicate wells were used for each concentration. The cells were incubated at 37° C., 5% CO2 for 3 h before the cells were harvested. At time of harvest, media was removed and cells were rinsed in 200 μL PBS. Cells were harvested using the mRNA Catcher PLUS kit according to manufacturer's instructions. The eluted mRNA was then used in a one-step quantitative real-time PCR reaction using components of the RNA UltraSense™ One-Step Kit (Life Technologies) together with Applied Biosystems TaqMan® primer-probes for hIL-6 and Cyclophilin. Real-time PCR plates were run on a ViiA™ 7 real time PCR machine (Applied Biosystems), data was analyzed, normalizing the Ct values for hIL-6 to an internal control, prior to determining the fold expression of each sample, relative to the control.

[2] = test system: Human AML MV-4-11 cells; experiment: Inhibition of cell proliferation in cancer cell lines (CellTiter Aqueous One); assay type: cell-based; details: Homo sapiens; MV4-11 cells, 72 h
Description: MV4-11 cells (CRL-9591) were plated at a density of 5×10^4 cells per well in 96 well flat bottom plates and treated with increasing concentrations of test compound or DMSO (0.1%) in IMDM media containing 10% FBS and penicillin/streptomycin. Triplicate wells were used for each concentration and a well containing only media was used as a control. Plates were incubated at 37° C., 5% CO2 for 72 h before adding 20 μL of the CellTiter Aqueous One Solution (Promega) to each well and incubated at 37° C., 5% CO2 for an additional 3-4 h. The absorbance was read at 490 nm in a spectrophotometer and the percentage of cell titer relative to DMSO-treated cells was calculated after correcting for background by subtracting the blank well's signal. IC50 values were calculated using the GraphPad Prism software.

[3] = biological target: T1, Brd4 bromodomain 1 (BRD4(1)) (Homo sapiens, UniProt O60885); experiment: Inhibition of tetra-acetylated histone H4 binding to BET bromodomain (HTRF/FRET); details: His-tagged bromodomain 200 nM, tetra-acetylated histone H4 peptide, 2 h room temperature
T1 construct: made in house; host or cells: E. coli BL21(DE3)
Description: Proteins were cloned and overexpressed with a N-terminal 6× His tag, then purified by nickel affinity followed by size exclusion chromatography. Briefly, E. coli BL21(DE3) cells were transformed with a recombinant expression vector encoding N-terminally Nickel affinity tagged bromodomains from Brd2, Brd3, Brd4. Cell cultures were incubated at 37° C. with shaking to the appropriate density and induced overnight with IPTG. The supernatant of lysed cells was loaded onto Ni-IDA column for purification. Eluted protein was pooled, concentrated and further purified by size exclusion chromatography. Fractions representing monomeric protein were pooled, concentrated, aliquoted, and frozen at −80° C. for use in subsequent experiments.
Binding of tetra-acetylated histone H4 and BET bromodomains was confirmed by a Homogenous Time Resolved Fluorescence Resonance Energy Transfer (HTRF®) method. N-terminally His-tagged bromodomains (200 nM) and biotinylated tetra-acetylated historic H4 peptide (25-50 nM, Millipore) were incubated in the presence of Europium Cryptate-labeled streptavidin (Cisbio Cat. #610SAKLB) and XL665-labeled monoclonal anti-His antibody (Cisbio Cat. #61HISXLB) in a white 96 well microtiter plate (Greiner). For inhibition assays, serially diluted test compound was added to these reactions in a 0.2% final concentration of DMSO. Duplicate wells were used for each concentration tested. Final buffer concentrations were 30 mM HEPES pH 7.4, 30 mM NaCl, 0.3 mM CHAPS, 20 mM phosphate pH 7.0, 320 mM KF, 0.08% BSA. After a 2 h incubation at room temperature, fluorescence was measured at 665 and 620 nm with a SynergyH4 plate reader (Biotek). The binding inhibitory activity was shown by a decrease in 665 nm relative to […] fluorescence. IC50 values were determined from a dose response curve.

[4] = test system: c-myc in Human AML MV4-11 cells; experiment: Inhibition of cMYC expression in cancer cell lines (mRNA, real-time PCR); assay type: cell-based; details: 3 h, cMYC mRNA normalized to Cyclophilin; for IC50: Homo sapiens
Description: MV4-11 cells (CRL-9591) were plated at a density of 2.5×10^4 cells per well in 96 well U-bottom plates and treated with increasing concentrations of test compound or DMSO (0.1%) in IMDM media containing 10% FBS and penicillin/streptomycin, and incubated for 3 h at 37° C. Triplicate wells were used for each concentration. Cells were pelleted by centrifugation and harvested using the mRNA Catcher PLUS kit according to manufacturer's instructions. The eluted mRNA isolated was then used in a one-step quantitative real-time PCR reaction, using components of the RNA UltraSense™ One-Step Kit (Life Technologies) together with Applied Biosystems TaqMan® primer-probes for cMYC and Cyclophilin. Real-time PCR plates were run on a ViiA™ 7 real time PCR machine (Applied Biosystems), data was analyzed, normalizing the Ct values for cMYC to an internal control, prior to determining the fold expression of each sample, relative to the control.

Row | Structure (SMILES) | IC50 [1] [nM] | IC50 [2] [nM] | IC50 [3] [nM] | IC50 [4] [nM] | c-myc activity [4]
1 | Cc1noc(C)c1-c1c[nH]c(=O)c(N[C@@H](C)c2ccccn2)c1 (single isomer, unassigned) [Example 41] | 300 to 3000 | 3000 to 30000 | ≤ 300 | 3000 to 30000 | 
2 | Cc1noc(C)c1-c1c[nH]c(=O)c(N[C@H](C)c2ccccn2)c1 (single isomer, unassigned) [Example 42] | 300 to 3000 | 300 to 3000 | ≤ 300 |  | Not Active
3 | Cc1noc(C)c1-c1c[nH]c(=O)c(Nc2cccc(F)c2)c1 [Example 3, 5-(3,5-dimethylisoxazol-4-yl)-3-((3-fluorophenyl)amino)pyridin-2(1H)-one] | 300 to 3000 | 3000 to 30000 | 300 to 3000 | 300 to 3000 | 
4 | Cc1noc(C)c1-c1c[nH]c(=O)c(Oc2ccccc2)c1 [Example 5, 5-(3,5-dimethylisoxazol-4-yl)-3-phenoxypyridin-2(1H)-one] |  |  | 300 to 3000 |  | 
5 | Cc1cccc(Nc2cc(-c3c(C)noc3C)c[nH]c2=O)c1 [Example 6, 5-(3,5-dimethylisoxazol-4-yl)-3-(m-tolylamino)pyridin-2(1H)-one] | 300 to 3000 | 300 to 3000 | ≤ 300 |  | 
6 | COc1cccc(Nc2cc(-c3c(C)noc3C)c[nH]c2=O)c1 [Example 7, 5-(3,5-dimethylisoxazol-4-yl)-3-((3-methoxyphenyl)amino)pyridin-2(1H)-one] |  | 3000 to 30000 | 300 to 3000 |  | 
7 | Cc1noc(C)c1-c1c[nH]c(=O)c(NCc2ccc(Cl)cc2)c1 [Example 8, 3-((4-chlorobenzyl)amino)-5-(3,5-dimethylisoxazol-4-yl)pyridin-2(1H)-one] | 300 to 3000 | 3000 to 30000 | ≤ 300 | 3000 to 30000 | 
8 | Cc1noc(C)c1-c1c[nH]c(=O)c(NCc2ccc(C#N)cc2)c1 [Example 9, 4-(((5-(3,5-dimethylisoxazol-4-yl)-2-oxo-1,2-dihydropyridin-3-yl)amino)methyl)benzonitrile] | 300 to 3000 | 3000 to 30000 | ≤ 300 | 300 to 3000 | 
9 | Cc1noc(C)c1-c1c[nH]c(=O)c(NCc2ccc(C(F)(F)F)cc2)c1 [Example 10, 5-(3,5-dimethylisoxazol-4-yl)-3-((4-(trifluoromethyl)benzyl)amino)pyridin-2(1H)-one] | 300 to 3000 | 3000 to 30000 | 300 to 3000 | 3000 to 30000 | 
10 | Cc1noc(C)c1-c1c[nH]c(=O)c(NCc2ccncc2)c1 [Example 11, 5-(3,5-dimethylisoxazol-4-yl)-3-((pyridin-4-ylmethyl)amino)pyridin-2(1H)-one] | 300 to 3000 | 3000 to 30000 | 300 to 3000 | 3000 to 30000 | 
11 | Cc1noc(C)c1-c1c[nH]c(=O)c(NCc2ccc(Cl)s2)c1 [Example 12, 3-(((5-chlorothiophen-2-yl)methyl)amino)-5-(3,5-dimethylisoxazol-4-yl)pyridin-2(1H)-one] | 300 to 3000 | 300 to 3000 | ≤ 300 |  | 
12 | Cc1noc(C)c1-c1c[nH]c(=O)c(NCc2ccsc2)c1 [Example 13, 5-(3,5-dimethylisoxazol-4-yl)-3-((thiophen-3-ylmethyl)amino)pyridin-2(1H)-one] | 300 to 3000 | 300 to 3000 | ≤ 300 | 300 to 3000 | 
13 | Cc1noc(C)c1-c1c[nH]c(=O)c(Nc2ccccc2F)c1 [Example 15, 5-(3,5-dimethylisoxazol-4-yl)-3-((2-fluorophenyl)amino)pyridin-2(1H)-one] |  |  | 300 to 3000 |  | 
14 | Cc1noc(C)c1-c1c[nH]c(=O)c(Nc2ccc(F)cc2)c1 [Example 16, 5-(3,5-dimethylisoxazol-4-yl)-3-((4-fluorophenyl)amino)pyridin-2(1H)-one] |  |  | 300 to 3000 |  | 
15 | Cc1noc(C)c1-c1c[nH]c(=O)c(NC(C)c2ccc(Cl)cc2)c1 (centres unmarked) [Example 18, 3-((1-(4-chlorophenyl)ethyl)amino)-5-(3,5-dimethylisoxazol-4-yl)pyridin-2(1H)-one] |  | 3000 to 30000 | 300 to 3000 | 300 to 3000 | 
16 | Cc1noc(C)c1-c1c[nH]c(=O)c(NCc2ccc(Br)cc2)c1 [Example 19, 3-((4-bromobenzyl)amino)-5-(3,5-dimethylisoxazol-4-yl)pyridin-2(1H)-one] |  | 3000 to 30000 | 300 to 3000 | 3000 to 30000 | 
17 | Cc1noc(C)c1-c1c[nH]c(=O)c(NCCc2ccccc2)c1 [Example 22, 5-(3,5-dimethylisoxazol-4-yl)-3-(phenethylamino)pyridin-2(1H)-one] |  |  | 300 to 3000 |  | 
18 | Cc1noc(C)c1-c1c[nH]c(=O)c(NCc2cccnc2)c1 [Example 23, 5-(3,5-dimethylisoxazol-4-yl)-3-((pyridin-3-ylmethyl)amino)pyridin-2(1H)-one] | 300 to 3000 |  | ≤ 300 | 300 to 3000 | 
19 | Cc1noc(C)c1-c1c[nH]c(=O)c(OCc2ccc(C#N)cc2)c1 [Example 25, 4-(((5-(3,5-dimethylisoxazol-4-yl)-2-oxo-1,2-dihydropyridin-3-yl)oxy)methyl)benzonitrile] |  |  | 300 to 3000 |  | 
20 | Cc1noc(C)c1-c1c[nH]c(=O)c(OCc2ccccn2)c1 [Example 26, 5-(3,5-dimethylisoxazol-4-yl)-3-(pyridin-2-ylmethoxy)pyridin-2(1H)-one] |  |  | 300 to 3000 |  | 
21 | Cc1noc(C)c1-c1c[nH]c(=O)c(Nc2ccc(C#N)cc2)c1 [Example 28, 4-((5-(3,5-dimethylisoxazol-4-yl)-2-oxo-1,2-dihydropyridin-3-yl)amino)benzonitrile] |  |  | 300 to 3000 |  | 
22 | Cc1noc(C)c1-c1c[nH]c(=O)c(Nc2ccc(Cl)cc2)c1 [Example 29, 3-((4-chlorophenyl)amino)-5-(3,5-dimethylisoxazol-4-yl)pyridin-2(1H)-one] |  | 3000 to 30000 | 300 to 3000 | 3000 to 30000 | 
23 | Cc1noc(C)c1-c1c[nH]c(=O)c(NCc2cnoc2)c1 [Example 31, 5-(3,5-dimethylisoxazol-4-yl)-3-((isoxazol-4-ylmethyl)amino)pyridin-2(1H)-one] |  |  | 300 to 3000 |  | 
24 | Cc1noc(C)c1-c1c[nH]c(=O)c(-c2c(C)noc2C)c1 [Example 32, 3,5-bis(3,5-dimethylisoxazol-4-yl)pyridin-2(1H)-one] |  |  | 3000 to 30000 |  | 
25 | Cc1noc(C)c1-c1c[nH]c(=O)c(NCc2nc3ccccc3[nH]2)c1 [Example 38, 3-(((1H-benzo[d]imidazol-2-yl)methyl)amino)-5-(3,5-dimethylisoxazol-4-yl)pyridin-2(1H)-one] |  |  | 300 to 3000 |  | 
